# In EPA's ToxValDB 9.5 (doi:10.2903/j.efsa.2006.88r):
# Assays:
# [1] = acute; oral; unspecified; mortality
# Apis mellifera = conditions: acute; duration: 48 hours; oral; unspecified; mortality
# Canidae = conditions: subchronic; oral; Dog Other; histopathology: nonneoplastic
# Daphnia magna = conditions: chronic/long-term; duration: 21 days; reproduction
# Oryctolagus sp. = conditions: subchronic; oral; histopathology: nonneoplastic
# Tagia sp. = conditions: mortality
compound,measurement,setting,value
CSc1nnc(C(C)(C)C)c(=O)n1N [Metribuzin],LD50,[1],322 mg/kg
same,LD50,Apis mellifera,166 µg/piece
same,LD50,"Bird; acute, oral, unspecified, mortality",164 mg/kg
same,NOEC,Bird; reproductive,28.3 mg/kg-day
same,LC50,"Bird; short-term, oral, feed, mortality",> 359 mg/kg-day
same,NOAEL,Canidae,2 mg/kg-day
same,NOEC,Daphnia magna,0.32 mg/L
same,LC50,"Oncorhynchus mykiss; acute, duration: 96 hours, mortality",74.6 µg/mL
same,NOEC,"Oncorhynchus mykiss; chronic/long-term, duration: 95 days, growth",4.4 mg/L
same,NOAEL,Oryctolagus sp.,2 mg/kg-day
same,NOAEL,"Rattus norvegicus; acute, clinical signs",> 2 mg/kg-day
same,NOAEL,"Rattus norvegicus; chronic, duration: 2 years",1.3 mg/kg-day
same,NOAEL,"Rattus norvegicus; reproduction developmental, body weight",2.2 mg/kg-day
same,NOAEL,"Rattus norvegicus; subchronic, oral, histopathology: nonneoplastic",2 mg/kg-day
same,LC50,"Tagia sp.; acute, duration: 14 days",427 mg/kg
same,NOEC,"Tagia sp.; chronic/long-term, duration: 8 weeks",5250 g/ha
